Experimental data published in patent US6471976B1, “Copper complex bactericide/fungicide and method of making same” (priority 1990, dated 2002).

System: Colletotrichum lagenarium
Experiment: Efficacy against Colletotrichum lagenarium on cucumber plants
Details: in vivo

Structure (SMILES): [Cu] [copper]
- estimated LD90 rate for the control of Colletotrichum lagenarium on cucumber plants: 200 ppm
